From patent US20230085307A1, “PYRIDAZINONE COMPOUND AND HERBICIDE” (NISSAN CHEMICAL CORPORATION, priority 2019, published 2023)

Legend:
[1] = test system: blackgrass; test: Test Example 5: herbicidal effect by foliage application, plastic box (Table 20, symbol J); type: in vivo, blackgrass (Alopecurus myosuroides); details: foliage application, 320 g/ha, three weeks after application
Procedure, shortened: (§1)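 Plants sown in sterilized diluvial soil and grown 14 days in a greenhouse at 25° C to 30° C, then sprayed on the foliage with the compound's emulsion diluted in water to a predetermined herbicide amount. Injury to weeds and crops scored three weeks after application on a visual rating scale.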

[2] = test system: wild oat; test: Test Example 4: herbicidal effect by soil treatment (Table 19, symbol I); type: in vivo, wild oat (Avena fatua); details: amount of applied herbicide 320 g/ha
Procedure, shortened: (§2)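 Three weeks of greenhouse growth at 25° C. to 30° C. followed a uniform surface spray of water-diluted emulsion at a predetermined herbicide amount. Seeds had been sown beforehand under about 1.5 cm of sterilized diluvial soil. Grading followed criteria set out in an earlier test.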

[3] = test system: wild oat; test: Test Example 5: herbicidal effect by foliage application, plastic box (Table 20, symbol I); type: in vivo, wild oat (Avena fatua); details: foliage application, 320 g/ha, three weeks after application
Procedure, shortened: as §1

[4] = test system: southern crabgrass; test: Test Example 4: herbicidal effect by soil treatment (Table 19, symbol F); type: in vivo, southern crabgrass (Digitaria ciliaris); details: amount of applied herbicide 320 g/ha
Procedure, shortened: as §2

[5] = test system: chickweed; test: Test Example 4: herbicidal effect by soil treatment (Table 19, symbol P); type: in vivo, common chickweed (Stellaria media); details: amount of applied herbicide 320 g/ha
Procedure, shortened: as §2

[6] = test system: blackgrass; test: Test Example 4: herbicidal effect by soil treatment (Table 19, symbol J); type: in vivo, blackgrass (Alopecurus myosuroides); details: amount of applied herbicide 320 g/ha
Procedure, shortened: as §2

[7] = test system: false cleavers; test: Test Example 4: herbicidal effect by soil treatment (Table 19, symbol Q); type: in vivo, false cleavers (Galium spurium); details: amount of applied herbicide 320 g/ha
Procedure, shortened: as §2

[8] = test system: barnyard grass; test: Test Example 3: herbicidal effect by foliage application, Wagner pot (Table 18, symbol H); type: in vivo, barnyard grass (Echinochloa crus-galli); details: 320 g/ha
Procedure, shortened: (§3)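 Plants were sown in alluvial soil held under 0.1–0.5 cm standing water and grown 14 days in a greenhouse at 25–30 °C. An emulsifiable formulation, water-diluted to the set dose, was then sprayed onto the foliage, and effects were scored three weeks later using previously defined criteria.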

[9] = test system: redroot pigweed; test: Test Example 5: herbicidal effect by foliage application, plastic box (Table 20, symbol N); type: in vivo, redroot pigweed (Amaranthus retroflexus); details: foliage application, 320 g/ha, three weeks after application
Procedure, shortened: as §1

[10] = test system: rice flat sedge; test: Test Example 3: herbicidal effect by foliage application, Wagner pot (Table 18, symbol E); type: in vivo, rice flat sedge (Cyperus iria); details: 320 g/ha
Procedure, shortened: as §3

[11] = test system: persian speedwell; test: Test Example 5: herbicidal effect by foliage application, plastic box (Table 20, symbol R); type: in vivo, Persian speedwell (Veronica persica); details: foliage application, 320 g/ha, three weeks after application
Procedure, shortened: as §1

[12] = test system: barnyard grass; test: Test Example 5: herbicidal effect by foliage application, plastic box (Table 20, symbol H); type: in vivo, barnyard grass (Echinochloa crus-galli); details: foliage application, 320 g/ha, three weeks after application
Procedure, shortened: as §1

[13] = test system: green foxtail; test: Test Example 4: herbicidal effect by soil treatment (Table 19, symbol G); type: in vivo, green foxtail (Setaria viridis); details: amount of applied herbicide 320 g/ha
Procedure, shortened: as §2

[14] = test system: lambsquarters; test: Test Example 5: herbicidal effect by foliage application, plastic box (Table 20, symbol O); type: in vivo, lambsquarters (Chenopodium album); details: foliage application, 320 g/ha, three weeks after application
Procedure, shortened: as §1

[15] = test system: southern crabgrass; test: Test Example 5: herbicidal effect by foliage application, plastic box (Table 20, symbol F); type: in vivo, southern crabgrass (Digitaria ciliaris); details: foliage application, 320 g/ha, three weeks after application
Procedure, shortened: as §1

[16] = test system: late watergrass; test: Test Example 2: herbicidal activity, application during weed generation under submerged conditions (Table 17, symbol A); type: in vivo, late watergrass (Echinochloa oryzicola); details: AAH 320 g/ha; application during weed generation, submerged conditions
Procedure, shortened: (§4)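 Herbicide emulsion, diluted with water to the chosen amount, is applied onto 4 cm floodwater over alluvial soil where the weeds were co-sown and raised at 25–30° C. Application timing: 1–2 leaves. Assessment: three weeks afterwards.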

[17] = test system: chickweed; test: Test Example 5: herbicidal effect by foliage application, plastic box (Table 20, symbol P); type: in vivo, common chickweed (Stellaria media); details: foliage application, 320 g/ha, three weeks after application
Procedure, shortened: as §1

[18] = test system: Italian ryegrass; test: Test Example 5: herbicidal effect by foliage application, plastic box (Table 20, symbol K); type: in vivo, Italian ryegrass (Lolium multiflorum); details: foliage application, 320 g/ha, three weeks after application
Procedure, shortened: as §1

[19] = test system: persian speedwell; test: Test Example 4: herbicidal effect by soil treatment (Table 19, symbol R); type: in vivo, Persian speedwell (Veronica persica); details: amount of applied herbicide 320 g/ha
Procedure, shortened: as §2

[20] = test system: Japanese bulrush; test: Test Example 2: herbicidal activity, application during weed generation under submerged conditions (Table 17, symbol B); type: in vivo, Japanese bulrush (Schoenoplectus juncoides); details: AAH 320 g/ha; application during weed generation, submerged conditions
Procedure, shortened: as §4

[21] = test system: false cleavers; test: Test Example 5: herbicidal effect by foliage application, plastic box (Table 20, symbol Q); type: in vivo, false cleavers (Galium spurium); details: foliage application, 320 g/ha, three weeks after application
Procedure, shortened: as §1

[22] = test system: oval-leafed pondweed; test: Test Example 2: herbicidal activity, application during weed generation under submerged conditions (Table 17, symbol C); type: in vivo, oval-leafed pondweed (Monochoria vaginalis); details: AAH 320 g/ha; application during weed generation, submerged conditions
Procedure, shortened: as §4

[23] = test system: Italian ryegrass; test: Test Example 4: herbicidal effect by soil treatment (Table 19, symbol K); type: in vivo, Italian ryegrass (Lolium multiflorum); details: amount of applied herbicide 320 g/ha
Procedure, shortened: as §2

[24] = test system: barnyard grass; test: Test Example 4: herbicidal effect by soil treatment (Table 19, symbol H); type: in vivo, barnyard grass (Echinochloa crus-galli); details: amount of applied herbicide 320 g/ha
Procedure, shortened: as §2

[25] = test system: redroot pigweed; test: Test Example 4: herbicidal effect by soil treatment (Table 19, symbol N); type: in vivo, redroot pigweed (Amaranthus retroflexus); details: amount of applied herbicide 320 g/ha
Procedure, shortened: as §2

[26] = test system: velvetleaf; test: Test Example 5: herbicidal effect by foliage application, plastic box (Table 20, symbol M); type: in vivo, velvetleaf (Abutilon theophrasti); details: foliage application, 320 g/ha, three weeks after application
Procedure, shortened: as §1

[27] = test system: velvetleaf; test: Test Example 4: herbicidal effect by soil treatment (Table 19, symbol M); type: in vivo, velvetleaf (Abutilon theophrasti); details: amount of applied herbicide 320 g/ha
Procedure, shortened: as §2

[28] = test system: Chinese sprangletop; test: Test Example 3: herbicidal effect by foliage application, Wagner pot (Table 18, symbol D); type: in vivo, chinese sprangletop (Leptochloa chinensis); details: 320 g/ha
Procedure, shortened: as §3

[29] = test system: windgrass; test: Test Example 5: herbicidal effect by foliage application, plastic box (Table 20, symbol L); type: in vivo, windgrass (Apera spica-venti); details: foliage application, 320 g/ha, three weeks after application
Procedure, shortened: as §1

[30] = test system: green foxtail; test: Test Example 5: herbicidal effect by foliage application, plastic box (Table 20, symbol G); type: in vivo, green foxtail (Setaria viridis); details: foliage application, 320 g/ha, three weeks after application
Procedure, shortened: as §1

In the case of `COc1ccc(-c2sc3ccccc3c2-c2c(O)c(C)nn(C)c2=O)cc1C` [1-068], the “herbicidal effect grade, J: blackgrass” value [1] is reported as 0 (Herbicidal rate of 5% or less (almost no effect)), the “herbicidal effect rating, I: wild oat” value [2] is reported as 0 (Herbicidal rate of 5% or less (almost no effect)) and the “herbicidal effect grade, I: wild oat” value [3] is reported as 1 (Herbicidal rate of 5% or more and less than 20%). The “herbicidal effect rating, F: southern crabgrass” value [4] was 0 (Herbicidal rate of 5% or less (almost no effect)), the “herbicidal effect rating, P: chickweed” value [5] was 2 (Herbicidal rate of 20% or more and less than 40%) and the “herbicidal effect rating, J: blackgrass” value [6] was 0 (Herbicidal rate of 5% or less (almost no effect)). For the same compound, the “herbicidal effect rating, Q: false cleavers” value [7] was 0 (Herbicidal rate of 5% or less (almost no effect)), the “herbicidal effect on H (barnyard grass), rating 0-5” value [8] was 3 (Herbicidal rate of 40% or more and less than 70%) and the “herbicidal effect grade, N: redroot pigweed” value [9] was 0 (Herbicidal rate of 5% or less (almost no effect)). For the same compound, the “herbicidal effect on E (rice flat sedge), rating 0-5” value [10] was 5 (Herbicidal rate of 90% or more (almost completely withered)), the “herbicidal effect grade, R: persian speedwell” value [11] was 5 (Herbicidal rate of 90% or more (almost completely withered)) and the “herbicidal effect grade, H: barnyard grass” value [12] was 3 (Herbicidal rate of 40% or more and less than 70%). The “herbicidal effect rating, G: green foxtail” value [13] was 4 (Herbicidal rate of 70% or more and less than 90%), the “herbicidal effect grade, O: lambsquarters” value [14] was 3 (Herbicidal rate of 40% or more and less than 70%) and the “herbicidal effect grade, F: southern crabgrass” value [15] was 3 (Herbicidal rate of 40% or more and less than 70%). For the same compound, the “herbicidal effect rating, A: late watergrass” value [16] was 0 (Herbicidal rate of 5% or less (almost no effect)), the “herbicidal effect grade, P: chickweed” value [17] was 5 (Herbicidal rate of 90% or more (almost completely withered)) and the “herbicidal effect grade, K: Italian ryegrass” value [18] was 3 (Herbicidal rate of 40% or more and less than 70%). For the same compound, the “herbicidal effect rating, R: persian speedwell” value [19] was 4 (Herbicidal rate of 70% or more and less than 90%), the “herbicidal effect rating, B: Japanese bulrush” value [20] was 1 (Herbicidal rate of 5% or more and less than 20%) and the “herbicidal effect grade, Q: false cleavers” value [21] was 0 (Herbicidal rate of 5% or less (almost no effect)). The “herbicidal effect rating, C: oval-leafed pondweed” value [22] was 3 (Herbicidal rate of 40% or more and less than 70%), the “herbicidal effect rating, K: Italian ryegrass” value [23] was 2 (Herbicidal rate of 20% or more and less than 40%) and the “herbicidal effect rating, H: barnyard grass” value [24] was 4 (Herbicidal rate of 70% or more and less than 90%). For the same compound, the “herbicidal effect rating, N: redroot pigweed” value [25] was 0 (Herbicidal rate of 5% or less (almost no effect)), the “herbicidal effect grade, M: velvetleaf” value [26] was 3 (Herbicidal rate of 40% or more and less than 70%) and the “herbicidal effect rating, M: velvetleaf” value [27] was 0 (Herbicidal rate of 5% or less (almost no effect)). For the same compound, the “herbicidal effect on D (Chinese sprangletop), rating 0-5” value [28] was 1 (Herbicidal rate of 5% or more and less than 20%), the “herbicidal effect grade, L: windgrass” value [29] was 0 (Herbicidal rate of 5% or less (almost no effect)) and the “herbicidal effect grade, G: green foxtail” value [30] was 3 (Herbicidal rate of 40% or more and less than 70%).
